According to PubChem BioAssay AID1963840 (Molecular Pharmacology Branch, DTP, NCI, 2024):

Tested on: 695427-040-R-J1-PDC complex spheroid viability
Assay: Anticancer human tumor 695427-040-R-J1-PDC patient-derived colon adenocarcinoma cell line growth inhibition [POLQ]
Conditions: for IC50: curve of first compound; for viability, T/C: stronger effect = lower value
Method in brief: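 Growth inhibition in 3D: complex spheroids (tumor PDC, HUVEC, MSC) treated with POLQ inhibitor combinations; where Cmax unknown, highest tested concentration 10 microM, except SN-38 at 1 microM.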

[1] = second compound 0.0316 µM, first compound 0.0316 µM
[2] = second compound 0.0316 µM, first compound 0.1 µM
[3] = second compound 0.0316 µM, first compound 0.316 µM
[4] = second compound 0.0316 µM, first compound 1 µM
[5] = second compound 0.1 µM, first compound 0.0316 µM
[6] = second compound 0.1 µM, first compound 0.1 µM
[7] = second compound 0.1 µM, first compound 0.316 µM
[8] = second compound 0.1 µM, first compound 1 µM
[9] = second compound 0.316 µM, first compound 0.0316 µM
[10] = second compound 0.316 µM, first compound 0.1 µM
[11] = second compound 0.316 µM, first compound 0.316 µM
[12] = second compound 0.316 µM, first compound 1 µM
[13] = second compound 1 µM, first compound 0.0316 µM
[14] = second compound 1 µM, first compound 0.1 µM
[15] = second compound 1 µM, first compound 0.316 µM
[16] = second compound 1 µM, first compound 1 µM
[17] = second compound 3.16 µM, first compound 0.0316 µM
[18] = second compound 3.16 µM, first compound 0.1 µM
[19] = second compound 3.16 µM, first compound 0.316 µM
[20] = second compound 3.16 µM, first compound 1 µM
[21] = second compound 10 µM, first compound 0.0316 µM
[22] = second compound 10 µM, first compound 0.1 µM
[23] = second compound 10 µM, first compound 0.316 µM
[24] = second compound 10 µM, first compound 1 µM
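Also: spheroids exposed to compounds for seven days.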
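For viability, T/C in this document: 100% = DMSO vehicle control viability.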

## CNCc1ccc(-c2[nH]c3cc(F)cc4c3c2CCNC4=O)cc1 + Nc1ccc(C#CCN(C(=O)Cc2ncc(C(F)(F)F)cc2C(F)(F)F)c2ccc(F)cc2)nn1
Second compound 0.0316 µM
  IC50: > 10000 nM
Second compound 0.1 µM
  IC50: > 10000 nM
Second compound 0.316 µM
  IC50: > 10000 nM
Second compound 1 µM
  IC50: > 10000 nM
Second compound 3.16 µM
  IC50: > 10000 nM
Second compound 10 µM
  IC50: > 10000 nM
[1]
  viability, T/C: 101%
[2]
  viability, T/C: 101%
[3]
  viability, T/C: 106%
[4]
  viability, T/C: 108%
Second compound 0.0316 µM, first compound 3.16 µM
  viability, T/C: 110%
Second compound 0.0316 µM, first compound 10 µM
  viability, T/C: 107%
[5]
  viability, T/C: 114%
[6]
  viability, T/C: 110%
[7]
  viability, T/C: 104%
[8]
  viability, T/C: 104%
Second compound 0.1 µM, first compound 3.16 µM
  viability, T/C: 118%
Second compound 0.1 µM, first compound 10 µM
  viability, T/C: 109%
[9]
  viability, T/C: 119%
[10]
  viability, T/C: 102%
[11]
  viability, T/C: 96.1%
[12]
  viability, T/C: 104%
Second compound 0.316 µM, first compound 3.16 µM
  viability, T/C: 115%
Second compound 0.316 µM, first compound 10 µM
  viability, T/C: 104%
[13]
  viability, T/C: 117%
[14]
  viability, T/C: 94%
[15]
  viability, T/C: 98.1%
[16]
  viability, T/C: 103%
Second compound 1 µM, first compound 3.16 µM
  viability, T/C: 112%
Second compound 1 µM, first compound 10 µM
  viability, T/C: 107%
[17]
  viability, T/C: 103%
[18]
  viability, T/C: 111%
[19]
  viability, T/C: 97.2%
[20]
  viability, T/C: 112%
Second compound 3.16 µM, first compound 3.16 µM
  viability, T/C: 113%
Second compound 3.16 µM, first compound 10 µM
  viability, T/C: 118%
[21]
  viability, T/C: 105%
[22]
  viability, T/C: 98.6%
[23]
  viability, T/C: 92.3%
[24]
  viability, T/C: 105%
Second compound 10 µM, first compound 3.16 µM
  viability, T/C: 105%
Second compound 10 µM, first compound 10 µM
  viability, T/C: 102%

## COc1cccc(OCCCN)c1-c1cc(Nc2cnc(C#N)cn2)n[nH]1 + Nc1ccc(C#CCN(C(=O)Cc2ncc(C(F)(F)F)cc2C(F)(F)F)c2ccc(F)cc2)nn1
Second compound 0.0316 µM
  IC50: > 1000 nM
Second compound 0.1 µM
  IC50: > 1000 nM
Second compound 0.316 µM
  IC50: > 1000 nM
Second compound 1 µM
  IC50: > 1000 nM
Second compound 3.16 µM
  IC50: > 1000 nM
Second compound 10 µM
  IC50: 252 nM
Second compound 0.0316 µM, first compound 0.00316 µM
  viability, T/C: 106%
Second compound 0.0316 µM, first compound 0.01 µM
  viability, T/C: 99.7%
[1]
  viability, T/C: 94.4%
[2]
  viability, T/C: 82.8%
[3]
  viability, T/C: 68.8%
[4]
  viability, T/C: 53.5%
Second compound 0.1 µM, first compound 0.00316 µM
  viability, T/C: 115%
Second compound 0.1 µM, first compound 0.01 µM
  viability, T/C: 94.1%
[5]
  viability, T/C: 88.7%
[6]
  viability, T/C: 85.7%
[7]
  viability, T/C: 66.3%
[8]
  viability, T/C: 51.9%
Second compound 0.316 µM, first compound 0.00316 µM
  viability, T/C: 104%
Second compound 0.316 µM, first compound 0.01 µM
  viability, T/C: 101%
[9]
  viability, T/C: 80.9%
[10]
  viability, T/C: 82.1%
[11]
  viability, T/C: 73.6%
[12]
  viability, T/C: 49.7%
Second compound 1 µM, first compound 0.00316 µM
  viability, T/C: 105%
Second compound 1 µM, first compound 0.01 µM
  viability, T/C: 94.2%
[13]
  viability, T/C: 91.6%
[14]
  viability, T/C: 85.4%
[15]
  viability, T/C: 70.3%
[16]
  viability, T/C: 50.7%
Second compound 3.16 µM, first compound 0.00316 µM
  viability, T/C: 95.3%
Second compound 3.16 µM, first compound 0.01 µM
  viability, T/C: 90.1%
[17]
  viability, T/C: 80%
[18]
  viability, T/C: 69%
[19]
  viability, T/C: 59.4%
[20]
  viability, T/C: 50.2%
Second compound 10 µM, first compound 0.00316 µM
  viability, T/C: 95.8%
Second compound 10 µM, first compound 0.01 µM
  viability, T/C: 86.2%
[21]
  viability, T/C: 69.7%
[22]
  viability, T/C: 59%
[23]
  viability, T/C: 46.6%
[24]
  viability, T/C: 44.3%
